Patent US10654890B2, “Cyclic peptide derivative, method for preparing same and composition thereof” (priority 2014, dated 2020)
Counter-ions that a name gives are not always drawn.

Legend:
[1] = system: senescence-accelerated model mouse SAMP8; test: Coefficient of friction measurement test of body hair; format: in vivo
From the text: Considering that the anti-aging effect for body hair and hair has been analyzed until now by using a senescence-accelerated model mouse (SAMP8) (Non Patent Literature 40), the inventors of the present invention also conducted an analysis regarding the anti-aging effect for body hair and hair for a senescence-accelerated model mouse administered with the cyclic peptide derivative by using a static and dynamic friction tester and a scanning probe microscope (SPM).
Coefficient of friction of animal hair and body hair is closely related to the state of cuticle as a scale-like tissue present on a surface of hair and body hair, and it is considered that the value of coefficient of friction (COF) increases as damages on cuticle of a hair and body hair increases (Non Patent Literature 40). It is also known that, when the damages on cuticle are high, moisture or nutrients of hair and body hair are lost from the damaged part of cuticle.
As for the apparatus, a handy rub tester TL701 (manufactured by Trinity-Lab Inc.), which is a static and dynamic friction tester, was used. […] Namely, the apparatus even allows measurement of friction on a surface of skin or materials which have a complex curved surface.
The contact member of a static and dynamic friction tester was closely pressed on body hair on forehead part of a mouse, and while applying a load of about 1 N, the member was moved, through an area between two ears, from the forehead to neck part of the mouse for about ten seconds, and the coefficient of friction (COF) was measured. The coefficient of friction (COF) was measured 5 to 10 times per mouse, and an average value thereof was calculated.

culture astrocyte = test: Astrocyte proliferative activity test (BrdU cell proliferation ELISA); format: cell-based, mouse
Experimental: A pregnant ICR female mouse was purchased from Japan SLC, Inc., and a neonatal mouse 24 to 48 after birth was used for the test.
A neonatal ICR mouse (24 to 48 after birth) was sufficiently sterilized with 70% ethanol, immersed in 30 ml of PBS (−) in a 100 mm dish (diameter of 100 mm, Orange Scientific) for cell culture, and then placed in a clean bench. The neonatal mouse was subjected to cervical dislocation using tweezers and euthanized. Head of the neonatal mouse was open and the entire brain was removed. The obtained brain was transferred to a 100 mm dish for cell culture in which 15 ml of high glucose Dulbecco's modified Eagle medium (HG-D-MEM, Wako Pure Chemical Industries, Ltd.) is added. By using tweezers, the olfactory bulb, median eminence, and meninges were removed in the medium to obtain only a cerebrum having hippocampus. Subsequently, the obtained cerebrum was transferred to a 100 mm dish for cell culture added with 10 ml of HG-D-MEM, and using a scalpel, the cerebrum was finely cut to be 1 mm^2 or less. The cerebrum after cutting was transferred, together with the medium, to a 50 ml conical tube (TPP), and after allowing it to stand for 2 minutes, the supernatant was removed. Subsequently, the cerebrum after cutting was added with 4 ml of fresh HG-D-MEM, and after further adding 400 μl of 2.5% trypsin (SIGMA) and 40 μl of 1% DNase I (SIGMA), the cerebrum was incubated in a water bath at 37° C. for 10 minutes under intermittent stirring. Subsequently, to the cerebrum after cutting, 10 ml of HG-D-MEM (10% FBS) was added to terminate the reaction of trypsin followed by centrifuge for 3 minutes at 1,000×g using a centrifuge (H-9R, KOKUSAN Co., Ltd.). The supernatant was collected by an electric pipette, 10 ml of HG-D-MEM (10% FBS) was added to a precipitated cell mass, and pipetting using a sterile pipette was carried out several times until the cell mass is not observed. To remove the remaining cell mass from this cell dispersion, the cell dispersion was passed through a cell strainer (pore diameter of 100 μm, BD Falcon™), and the number of cells in the cell dispersion which has passed through the cell strainer was counted by using a cell counting plate. An adjustment was made with HG-D-MEM (10% FBS) such that the number of cells is 6.0×10^5 cells/ml. After the adjustment of the number of cells, the cell dispersion was seeded, in an amount of 7 ml for each, to a Poly-D-Lysine Cellware 100 mm Dish (PDL 100 mm dish, BD Falcon™). 96 Hours after the seeding, the medium was removed once using an aspirator, and after briefly washing the inside of a 100 mm PDL dish with 10 ml of PBS (−), the medium exchange was carried out by newly adding 7 ml of HG-D-MEM. The above method and the astrocyte preparation described below were carried out based on the method of McCarthy and de Vellis (1980, Non Patent Literature 30).
72 Hours after the medium exchange, the 100 mm PDL dish seeded with the cell broth was removed from the incubator, and tightly covered using a parafilm and fixed by overlaying 3 to 4 dishes. The resultant was cultured by shaking using a bioshaker (MULTI SHAKER MMS, INCUBATOR FMS/EYELA) under a condition including 37° C., 100 rpm, and 20 hours, and the neuronal cells, cell debris, dead cells or the like were liberated. At that time, in the inside the 100 mm PDL dish, only the astrocyte as a glial cell in central nervous system other than neuron was adhered (hereinbelow, described as culture astrocyte). After the shaking, the 100 mm PDL dish was transferred to a clean bench, the supernatant was removed by an aspirator and washed with 10 ml of PBS (−), and after adding 1 ml of 2.5% trypsin (SIGMA) using a Pasteur pipette, the dish was left to stand in an incubator for 10 minutes. The 100 mm PDL dish was again brought back to the clean bench, and added with 10 ml of Dulbecco's modified Eagle medium (D-MEM, Wako Pure Chemical Industries, Ltd.) (10% FBS). […]

With `CCC1(C)Oc2cc(ccc2O)C(O)C(NC)C(=O)NC(C(C)C)C(=O)NC1C(=O)NC(CCC(=O)O)C(=O)O` (centres unmarked) [cyclic peptide derivative] the “coefficient of friction (COF) of body hair” value (“coefficient of friction” below) ([1]; SAMP8, oral 2.5 μg/kg/day) was “lowered to the same level as those of a mouse with normal aging”, the “coefficient of friction” value ([1]; SAMP8, oral 25 μg/kg/day) was “lowered to the same level as those of a mouse with normal aging” and the “astrocyte proliferation compared to the control group” value (culture astrocyte; 25 μM, FIG. 7) was “about 12 times”. The “astrocyte proliferation accelerating activity” value (culture astrocyte; 0.1, 1, 5, 10, 25, and 50 μM, 24 hours exposure, FIG. 6) was “observed with concentration dependency”, the astrocyte proliferative activity (culture astrocyte; extracts and fractions of the isolation and purification steps, listed as F3-10-4-5-3) was “significant astrocyte proliferative activity” and the astrocyte proliferative activity (culture astrocyte; extracts and fractions of the isolation and purification steps, listed as F-3-10-4-5-3) was “containing the components with an astrocyte proliferative activity”.
For `COc1cc2c(cc1OC)C(=O)C(CC1CCN(Cc3ccccc3)CC1)C2` (centres unmarked) [donepezil hydrochloride, reference compound], the “coefficient of friction” value ([1]; SAMP8, oral donepezil hydrochloride 1250 μg/kg/day) was “the same level as that of the senescence-accelerated model mouse” and the astrocyte proliferative activity (culture astrocyte; 25 μM, FIG. 8 and FIG. 9) was “no significant astrocyte proliferative activity was observed”.
